Results on 20 molecules are retold here after patent US20090181986A1, “SUBSTITUTED HETEROCYCLIC COMPOUNDS” (priority 2007, published 2009).

For one data set, the system named is L-type calcium channel. Description: L-type calcium channel activity well-plate assay (IMR-32 cells, Ca-4 dye, FlexStation). It counts as cell-based, human. How it is done:
Cell Culture: IMR-32 (human neuroblastoma) cells were obtained from The American Type Culture Collection. The cells were maintained in MEM supplemented with 10% fetal bovine serum, 2 mM of L-glutamine, 100 IU/ml of penicillin, 50 μg/ml of streptomycin, 1% of sodium pyruvate, 1% of sodium bicarbonate and 1% of non-essential amino acid. […] Culture medium was changed every two days and cells were recultivated when they reached 70-80% confluent.
Assay: IMR-32 cells were seeded on a Microtest 96-well Assay Plate (BD FALCON™) at a density of 200,000 cells/well in 200 μl culture medium for overnight. The culture medium was removed, and replaced by 120 μl Ca-4 dye (MDS Analytical Technologies, Sunnyvale, Calif.) in HBSS (1× Hank's Balanced Salt solution plus 20 mM HEPES, pH 7.4) containing 2 mM probenecid. Cells were then incubated for 1 hour at 37° in incubator. Testing compounds were diluted from 5 μM-50 μM in HBSS, and 40 μl were added in cells before assay. […] The inhibition of L-type calcium channel activity by compounds was then calculated.

The next data set addresses hERG potassium channel (Homo sapiens, UniProt Q12809). As to the kind of experiment: hERG screening assay (PatchXpress patch clamp, CHO cells).

hERG potassium channel, sequence (Q12809 whole entry): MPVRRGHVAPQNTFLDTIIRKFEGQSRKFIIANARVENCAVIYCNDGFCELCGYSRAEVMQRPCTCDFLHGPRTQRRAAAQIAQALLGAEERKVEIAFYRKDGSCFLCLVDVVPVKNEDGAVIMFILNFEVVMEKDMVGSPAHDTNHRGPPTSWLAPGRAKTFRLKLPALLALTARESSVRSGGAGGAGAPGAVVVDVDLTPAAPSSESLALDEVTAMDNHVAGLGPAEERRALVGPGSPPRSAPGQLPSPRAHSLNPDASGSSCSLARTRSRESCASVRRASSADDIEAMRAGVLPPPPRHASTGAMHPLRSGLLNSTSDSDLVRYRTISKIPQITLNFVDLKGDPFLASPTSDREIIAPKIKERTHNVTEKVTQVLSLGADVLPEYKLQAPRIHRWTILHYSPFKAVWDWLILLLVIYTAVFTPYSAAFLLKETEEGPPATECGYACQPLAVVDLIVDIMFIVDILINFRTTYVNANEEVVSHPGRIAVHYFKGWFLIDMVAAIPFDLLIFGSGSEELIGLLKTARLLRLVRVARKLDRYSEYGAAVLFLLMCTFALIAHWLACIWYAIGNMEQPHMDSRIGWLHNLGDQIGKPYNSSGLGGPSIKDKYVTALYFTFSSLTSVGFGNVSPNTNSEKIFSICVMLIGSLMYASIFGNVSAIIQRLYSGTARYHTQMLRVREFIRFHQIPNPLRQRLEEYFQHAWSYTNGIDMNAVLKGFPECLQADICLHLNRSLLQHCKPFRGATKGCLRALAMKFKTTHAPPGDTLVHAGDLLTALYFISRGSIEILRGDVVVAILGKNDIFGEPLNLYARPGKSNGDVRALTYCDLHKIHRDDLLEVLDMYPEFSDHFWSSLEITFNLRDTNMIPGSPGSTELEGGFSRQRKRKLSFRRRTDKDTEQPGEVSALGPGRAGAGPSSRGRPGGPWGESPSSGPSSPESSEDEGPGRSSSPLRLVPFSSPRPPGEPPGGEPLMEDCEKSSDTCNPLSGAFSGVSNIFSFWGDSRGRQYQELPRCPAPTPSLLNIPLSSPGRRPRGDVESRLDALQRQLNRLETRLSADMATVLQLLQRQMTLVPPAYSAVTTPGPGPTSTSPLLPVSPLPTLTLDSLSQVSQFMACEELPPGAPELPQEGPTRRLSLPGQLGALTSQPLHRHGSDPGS

For the molecule `CCOC(=O)C1=C(C)Nc2nnnn2C1c1ccc2ccccc2c1` (stereo not drawn) [PT-008, ethyl 5-methyl-7-(naphthalen-2-yl)-4,7-dihydrotetrazolo[1,5-a]pyrimidine-6-carboxylate], in the data set on L-type calcium channel, the “CaL Plate Assay % blk (1 μM test cmpd)” value was 0% and the “CaL Plate Assay % blk (10 μM test cmpd)” value is on record as 9%. Moreover, at hERG potassium channel, the “hERG Patch Clamp hERG % blk (1 μM test cmpd)” value is 10% and the “hERG Patch Clamp hERG % blk (10 μM test cmpd)” value worked out at 33.5%.

`CC1=C(C(=O)OCC(F)(F)F)C(c2cccc3ccccc23)n2nnnc2N1` (stereo not drawn) [PT-014, 2,2,2-trifluoroethyl 5-methyl-7-(naphthalen-1-yl)-4,7-dihydrotetrazolo[1,5-a]pyrimidine-6-carboxylate]: in the data set with L-type calcium channel, the “CaL Plate Assay % blk (1 μM test cmpd)” value was 0% and the “CaL Plate Assay % blk (10 μM test cmpd)” value amounted to 40%.

Turning to `CC1=C(C(=O)OCc2ccccc2)C(c2cccc3ccccc23)n2nnnc2N1` (stereo not drawn) [PT-027, benzyl 5-methyl-7-(naphthalen-1-yl)-4,7-dihydrotetrazolo[1,5-a]pyrimidine-6-carboxylate], in the data set with L-type calcium channel, the “CaL Plate Assay % blk (1 μM test cmpd)” value is given as 0% and the “CaL Plate Assay % blk (10 μM test cmpd)” value is given as 0%. Moreover, on hERG potassium channel, the “hERG Patch Clamp hERG % blk (1 μM test cmpd)” value is reported as 14% and the “hERG Patch Clamp hERG % blk (10 μM test cmpd)” value is on record as 64.5%.

`CC1=C(C(=O)OCc2ccccc2)C(c2c3ccccc3cc3ccccc23)n2nnnc2N1` (stereo not drawn) [PT-039, benzyl 7-(anthracen-9-yl)-5-methyl-4,7-dihydrotetrazolo[1,5-a]pyrimidine-6-carboxylate]: in the data set with L-type calcium channel, the “CaL Plate Assay % blk (1 μM test cmpd)” value was determined as 2% and the “CaL Plate Assay % blk (10 μM test cmpd)” value was 0%. Besides, on hERG potassium channel, the “hERG Patch Clamp hERG % blk (1 μM test cmpd)” value turned out to be 10% and the “hERG Patch Clamp hERG % blk (10 μM test cmpd)” value was 27.5%.

For `CC1=C(C(=O)OCc2ccccc2)C(c2cccs2)n2nnnc2N1` (stereo not drawn) [PT-040, benzyl 5-methyl-7-(thiophen-2-yl)-4,7-dihydrotetrazolo[1,5-a]pyrimidine-6-carboxylate], in the data set with L-type calcium channel, the “CaL Plate Assay % blk (1 μM test cmpd)” value was determined as 0% and the “CaL Plate Assay % blk (10 μM test cmpd)” value is given as 18%. Moreover, on hERG potassium channel, the “hERG Patch Clamp hERG % blk (1 μM test cmpd)” value amounted to 14.5% and the “hERG Patch Clamp hERG % blk (10 μM test cmpd)” value was determined as 24.5%.

`CC1=C(C(=O)OCc2ccccc2)C(c2cc3ccccc3s2)n2nnnc2N1` (stereo not drawn) [PT-043, benzyl 7-(benzo[b]thiophen-2-yl)-5-methyl-4,7-dihydrotetrazolo[1,5-a]pyrimidine-6-carboxylate]: in the data set with L-type calcium channel, the “CaL Plate Assay % blk (1 μM test cmpd)” value was 23% and the “CaL Plate Assay % blk (10 μM test cmpd)” value was 60%.

In the case of `CC1=C(C(=O)O[C@@H](C)c2ccccc2)C(c2cccc3ccccc23)n2nnnc2N1` (stereo partly drawn) [PT-048, (S)-1-phenylethyl 5-methyl-7-(naphthalen-1-yl)-4,7-dihydrotetrazolo[1,5-a]pyrimidine-6-carboxylate], in the data set on L-type calcium channel, the “CaL Plate Assay % blk (1 μM test cmpd)” value came out at 0% and the “CaL Plate Assay % blk (10 μM test cmpd)” value amounted to 74%.

As to `N#CC1=C(N)OC2=C(C(=O)CC(c3ccccc3)C2)C1c1ccsc1` (stereo not drawn) [PT-102, 2-amino-5-oxo-7-phenyl-4-(thiophen-3-yl)-5,6,7,8-tetrahydro-4H-chromene-3-carbonitrile], in the data set with L-type calcium channel, the “CaL Plate Assay % blk (1 μM test cmpd)” value was determined as 6% and the “CaL Plate Assay % blk (10 μM test cmpd)” value turned out to be 51%.

`CCOC(=O)C1=C(C)NC(C)=C(C(=O)OCC)C1c1ccsc1` [PT-110, diethyl 2,6-dimethyl-4-(thiophen-3-yl)-1,4-dihydropyridine-3,5-dicarboxylate]: in the data set with L-type calcium channel, the “CaL Plate Assay % blk (1 μM test cmpd)” value was determined as 86% and the “CaL Plate Assay % blk (10 μM test cmpd)” value was determined as 88%.

For `CCOC(=O)C1=C(C)NC(C)=C(C(=O)OCC)C1c1csc2ccccc12` [PT-115, diethyl 4-(benzo[b]thiophen-3-yl)-2,6-dimethyl-1,4-dihydropyridine-3,5-dicarboxylate], in the data set with L-type calcium channel, the “CaL Plate Assay % blk (1 μM test cmpd)” value was determined as 52% and the “CaL Plate Assay % blk (10 μM test cmpd)” value is 65%.

Turning to `CCOC(=O)C1=C(C)NC(C)=C(C(=O)OCC)C1c1ccc(CC)o1` [PT-121, diethyl 4-(5-ethylfuran-2-yl)-2,6-dimethyl-1,4-dihydropyridine-3,5-dicarboxylate], in the data set with L-type calcium channel, the “CaL Plate Assay % blk (1 μM test cmpd)” value amounted to 35% and the “CaL Plate Assay % blk (10 μM test cmpd)” value was 72%.

In the case of `CCOC(=O)C1=C(C)NC2=C(C(=O)CCC2)C1c1ccc(C)c2ccccc12` (stereo not drawn) [PT-135, ethyl 2-methyl-4-(4-methylnaphthalen-1-yl)-5-oxo-1,4,5,6,7,8-hexahydroquinoline-3-carboxylate], in the data set on L-type calcium channel, the “CaL Plate Assay % blk (1 μM test cmpd)” value turned out to be 24% and the “CaL Plate Assay % blk (10 μM test cmpd)” value is 62%.

For the molecule `CCCC1=C(C(=O)OCC)C(c2ccsc2)C2=C(CC(c3ccco3)CC2=O)N1` (stereo not drawn) [PT-150, ethyl 7-(furan-2-yl)-5-oxo-2-propyl-4-(thiophen-3-yl)-1,4,5,6,7,8-hexahydroquinoline-3-carboxylate], in the data set on L-type calcium channel, the “CaL Plate Assay % blk (1 μM test cmpd)” value turned out to be 4% and the “CaL Plate Assay % blk (10 μM test cmpd)” value is on record as 71%.

For `CC1=C(C(=O)OC(C)C)C(c2ccc3ccccc3c2)C2=C(CCCC2=O)N1` (stereo not drawn) [PT-157, isopropyl 2-methyl-4-(naphthalen-2-yl)-5-oxo-1,4,5,6,7,8-hexahydroquinoline-3-carboxylate], in the data set on L-type calcium channel, the “CaL Plate Assay % blk (1 μM test cmpd)” value is listed as 3% and the “CaL Plate Assay % blk (10 μM test cmpd)” value was determined as 43%.

In the case of `CC1=C(C(=O)NCCCCc2ccccc2)C(c2ccsc2)C2=C(CCCC2=O)N1` (stereo not drawn) [PT-164, 2-methyl-5-oxo-N-(4-phenylbutyl)-4-(thiophen-3-yl)-1,4,5,6,7,8-hexahydroquinoline-3-carboxamide], in the data set on L-type calcium channel, the “CaL Plate Assay % blk (1 μM test cmpd)” value amounted to 20% and the “CaL Plate Assay % blk (10 μM test cmpd)” value was found to be 77%.

As to `CCOC(=O)C1=C(C)Nc2nnnn2C1c1cccc(Oc2ccccc2)c1` (stereo not drawn) [PT-464, ethyl 5-methyl-7-(3-phenoxyphenyl)-4,7-dihydrotetrazolo[1,5-a]pyrimidine-6-carboxylate], at hERG potassium channel, the “hERG Patch Clamp hERG % blk (1 μM test cmpd)” value stood at 11% and the “hERG Patch Clamp hERG % blk (10 μM test cmpd)” value is given as 55%.

`CCOC(=O)C1=C(C)Nc2nnnn2C1c1ccccc1-n1ccnc1.Cl` (stereo not drawn) [PT-476, ethyl 7-(2-(1H-imidazol-1-yl)phenyl)-5-methyl-4,7-dihydrotetrazolo[1,5-a]pyrimidine-6-carboxylate hydrochloride]: at hERG potassium channel, the “hERG Patch Clamp hERG % blk (1 μM test cmpd)” value stood at 17.5% and the “hERG Patch Clamp hERG % blk (10 μM test cmpd)” value came to 23%.

For the molecule `CCOC(=O)C1=C(C)Nc2nnnn2C1c1ccccc1-n1cccn1.Cl` (stereo not drawn) [PT-477, ethyl 7-(2-(1H-pyrazol-1-yl)phenyl)-5-methyl-4,7-dihydrotetrazolo[1,5-a]pyrimidine-6-carboxylate hydrochloride], on hERG potassium channel, the “hERG Patch Clamp hERG % blk (1 μM test cmpd)” value worked out at 12% and the “hERG Patch Clamp hERG % blk (10 μM test cmpd)” value came out at 44%.

For the molecule `CCOC(=O)C1=C(C)Nc2nnnn2C1c1ccccc1-c1cccc(-c2nnn[nH]2)c1` (stereo not drawn) [PT-493, ethyl 7-(3′-(1H-tetrazol-5-yl)biphenyl-2-yl)-5-methyl-4,7-dihydrotetrazolo[1,5-a]pyrimidine-6-carboxylate], at hERG potassium channel, the “hERG Patch Clamp hERG % blk (1 μM test cmpd)” value was 10% and the “hERG Patch Clamp hERG % blk (10 μM test cmpd)” value is given as 10%.

For the molecule `COC(=O)C1=C(C)Nc2nnnn2C1c1cccc2ccccc12` (stereo not drawn) [PT-512, methyl 5-methyl-7-(naphthalen-1-yl)-4,7-dihydrotetrazolo[1,5-a]pyrimidine-6-carboxylate], on hERG potassium channel, the “hERG Patch Clamp hERG % blk (1 μM test cmpd)” value worked out at 10.5% and the “hERG Patch Clamp hERG % blk (10 μM test cmpd)” value is recorded as 14%.
